# Tested on: B16 cells gene expression
# Experiment: RNA-Seq (DEGs, GSEA, heatmaps) of B16 cells
# Conditions: B16 cells, KTC 0.2μM
# [1] = GSEA gene set HALLMARK_PI3K_AKT_MTOR_SIGNALING
# [2] = GSEA gene set HALLMARK_PROTEIN_SECRETION
# [3] = GSEA gene set HALLMARK_REACTIVE_OXIGEN_SPECIES_PATHWAY
# [4] = GSEA gene set HALLMARK_SPERMATOGENESIS
# [5] = GSEA gene set HALLMARK_TGF_BETA_SIGNALING
# [6] = GSEA gene set HALLMARK_TNFA_SIGNALING_VIA_NFKB
# [7] = GSEA gene set HALLMARK_UNFOLDED_PROTEIN_RESPONSE
# [8] = GSEA gene set HALLMARK_UV_RESPONSE_DN
# [9] = GSEA gene set HALLMARK_UV_RESPONSE_UP
# [10] = GSEA gene set HALLMARK_WNT_BETA_CATENIN_SIGNALING
# [11] = GSEA gene set HALLMARK_XENOBIOTIC_METABOLISM
smiles,measurement,setting,value
"COc1cc(N)cc2c1nc(C(F)F)n2-c1nc(N2CCCOCC2)nc(N2CCOCC2)n1 [KTC1101, 2-(difluoromethyl)-4-methoxy-1-(4-morpholino-6-(1,4-oxazepan-4-yl)-1,3,5-triazin-2-yl)-1H-benzo[d]imidazol-6-amine]",enrichmentScore,GSEA gene set HALLMARK_PEROXISOME,-0.395
same,NES,[1],-2.189
same,enrichmentScore,[1],-0.5044
same,NES,[2],-1.203
same,enrichmentScore,[2],-0.2769
same,NES,[3],-1.95
same,enrichmentScore,[3],-0.5432
same,NES,[4],-1.401
same,enrichmentScore,[4],-0.3536
same,NES,[5],1.944
same,enrichmentScore,[5],0.6123
same,NES,[6],2.211
same,enrichmentScore,[6],0.5723
same,NES,[7],-1.548
same,enrichmentScore,[7],-0.347
same,NES,[8],1.23
same,enrichmentScore,[8],0.3315
same,NES,[9],1.315
same,enrichmentScore,[9],0.3557
same,NES,[10],0.901
same,enrichmentScore,[10],0.3071
same,NES,[11],-1.2042
same,enrichmentScore,[11],-0.2641
same,NES: Glycolysis / Gluconeogenesis,GSEA KEGG mmu00010,-1.905
same,enrichmentScore: Glycolysis / Gluconeogenesis,GSEA KEGG mmu00010,-0.5183
same,NES: Citrate cycle (TCA cycle),GSEA KEGG mmu00020,-1.91
same,enrichmentScore: Citrate cycle (TCA cycle),GSEA KEGG mmu00020,-0.5694
same,NES: Pentose phosphate pathway,GSEA KEGG mmu00030,-1.779
same,enrichmentScore: Pentose phosphate pathway,GSEA KEGG mmu00030,-0.5767
same,NES: Fructose and mannose metabolism,GSEA KEGG mmu00051,-1.345
same,enrichmentScore: Fructose and mannose metabolism,GSEA KEGG mmu00051,-0.4104
same,NES: Galactose metabolism,GSEA KEGG mmu00052,-1.484
same,enrichmentScore: Galactose metabolism,GSEA KEGG mmu00052,-0.4712
same,NES: Oxidative phosphorylation,GSEA KEGG mmu00190,-2.112
same,enrichmentScore: Oxidative phosphorylation,GSEA KEGG mmu00190,-0.4855
same,NES: Purine metabolism,GSEA KEGG mmu00230,1.524
same,enrichmentScore: Purine metabolism,GSEA KEGG mmu00230,0.4484
same,NES: Pyrimidine metabolism,GSEA KEGG mmu00240,-1.587
same,enrichmentScore: Pyrimidine metabolism,GSEA KEGG mmu00240,-0.5015
same,"NES: Alanine, aspartate and glutamate metabolism",GSEA KEGG mmu00250,-1.481
same,"enrichmentScore: Alanine, aspartate and glutamate metabolism",GSEA KEGG mmu00250,-0.506
same,"NES: Glycine, serine and threonine metabolism",GSEA KEGG mmu00260,-2.025
same,"enrichmentScore: Glycine, serine and threonine metabolism",GSEA KEGG mmu00260,-0.643
same,NES: Cysteine and methionine metabolism,GSEA KEGG mmu00270,-1.68
same,enrichmentScore: Cysteine and methionine metabolism,GSEA KEGG mmu00270,-0.4743
same,"NES: Valine, leucine and isoleucine degradation",GSEA KEGG mmu00280,-1.453
same,"enrichmentScore: Valine, leucine and isoleucine degradation",GSEA KEGG mmu00280,-0.399
same,NES: Arginine and proline metabolism,GSEA KEGG mmu00330,-1.547
same,enrichmentScore: Arginine and proline metabolism,GSEA KEGG mmu00330,-0.474
same,NES: Glutathione metabolism,GSEA KEGG mmu00480,-1.885
same,enrichmentScore: Glutathione metabolism,GSEA KEGG mmu00480,-0.5172
same,NES: Amino sugar and nucleotide sugar metabolism,GSEA KEGG mmu00520,-1.225
same,enrichmentScore: Amino sugar and nucleotide sugar metabolism,GSEA KEGG mmu00520,-0.3367
same,NES: Glycerolipid metabolism,GSEA KEGG mmu00561,-1.232
same,enrichmentScore: Glycerolipid metabolism,GSEA KEGG mmu00561,-0.3383
same,NES: Ether lipid metabolism,GSEA KEGG mmu00565,-1.318
same,enrichmentScore: Ether lipid metabolism,GSEA KEGG mmu00565,-0.4355
same,NES: Pyruvate metabolism,GSEA KEGG mmu00620,-1.8611
same,enrichmentScore: Pyruvate metabolism,GSEA KEGG mmu00620,-0.5447
same,NES: Glyoxylate and dicarboxylate metabolism,GSEA KEGG mmu00630,-2.109
same,enrichmentScore: Glyoxylate and dicarboxylate metabolism,GSEA KEGG mmu00630,-0.6578
same,NES: Propanoate metabolism,GSEA KEGG mmu00640,-1.418
same,enrichmentScore: Propanoate metabolism,GSEA KEGG mmu00640,-0.4326
same,NES: Terpenoid backbone biosynthesis,GSEA KEGG mmu00900,-2.318
same,enrichmentScore: Terpenoid backbone biosynthesis,GSEA KEGG mmu00900,-0.7921
same,NES: Drug metabolism - other enzymes,GSEA KEGG mmu00983,-1.978
same,enrichmentScore: Drug metabolism - other enzymes,GSEA KEGG mmu00983,-0.5867
same,NES: Carbon metabolism,GSEA KEGG mmu01200,-2.129
same,enrichmentScore: Carbon metabolism,GSEA KEGG mmu01200,-0.4924
same,NES: 2-Oxocarboxylic acid metabolism,GSEA KEGG mmu01210,-1.574
same,enrichmentScore: 2-Oxocarboxylic acid metabolism,GSEA KEGG mmu01210,-0.4801
same,NES: Fatty acid metabolism,GSEA KEGG mmu01212,-1.192
same,enrichmentScore: Fatty acid metabolism,GSEA KEGG mmu01212,-0.3243
same,NES: Biosynthesis of amino acids,GSEA KEGG mmu01230,-2.742
same,enrichmentScore: Biosynthesis of amino acids,GSEA KEGG mmu01230,-0.7082
same,NES: Nucleotide metabolism,GSEA KEGG mmu01232,-1.799
same,enrichmentScore: Nucleotide metabolism,GSEA KEGG mmu01232,-0.4975
same,NES: Biosynthesis of cofactors,GSEA KEGG mmu01240,-1.22
same,enrichmentScore: Biosynthesis of cofactors,GSEA KEGG mmu01240,-0.2823
same,NES: EGFR tyrosine kinase inhibitor resistance,GSEA KEGG mmu01521,1.545
same,enrichmentScore: EGFR tyrosine kinase inhibitor resistance,GSEA KEGG mmu01521,0.4546
